{"source": "patent US20090304694A1", "about": "“Ang2 and Vegf Inhibitor Combinations” (AMGEN INC., priority 2006, published 2009)", "test_system": "Colo205 colorectal cancer cell xenografts", "test": "Colo205 xenograft tumor volume, 2xCon4(C) (2.8 μg) and Avastin™ (10 μg) (Example 7)", "format": "in vivo, female athymic nude mice (CD1 Nu/Nu)", "conditions": "Avastin™ 10 μg IP twice per week; 2xCon4(C) 2.8 μg sc twice per week; day 14 to day 42", "method": "Xenografts of Colo205 cells injected into female athymic nude mice were treated with 2xCon4(C) alone, Avastin™, or a combination of the two as described below.\nTumors were induced by injecting Colo205 cells subcutaneously into female athymic nude mice (CD1 Nu/Nu), 8-10 weeks old. All of the mice were obtained from Charles River Laboratories (Raleigh, N.C.). Cells were harvested from subconfluent cultures using trypsin/EDTA. The cells were greater than 95% viable by […] exclusion. 2×10^6 cells in 0.2 ml were injected subcutaneously into the right flank of each mouse.\nOn day 14 after injection the tumors averaged 250 mm^3, and the mice were divided at random into four groups of 10 mice each. Group 1 received IgG1 at a dose of 10 μg and Fc fragment control at a dose of 2.8 μg and served as a negative control. Group 2 received Avastin™ at a dose of 10 μg and Fc fragment control at 2.8 μg. Group 3 received 2xCon4(C) at a dose of 2.8 μg and human IgG1 at a dose of 10 μg. […]\nThe experiment was performed “blind” in accordance with the Cancer Pharmacology Blinded Study Guidelines. Tumors were measured and body weights were determined twice each week. Tumors were measured with an electronic digital caliper. Tumor volumes were calculated as the length×width×height measurements and expressed in mm^3.\nThe data were analyzed by repeated measures ANOVA for tumor volumes over time using STATVIEW v. […]", "data": [{"substance": "Avastin™: recombinant humanized monoclonal antibody that binds directly to VEGF, sold by Genentech", "values": [{"measurement": "reduction / inhibition of tumor growth compared to the control", "value": 18, "unit": "%"}]}]}
